Measured values published in patent publication US20240158446A1, “CYCLIC COMPOUND HAVING SELECTIVE INHIBITORY ACTION ON KRAS OVER HRAS AND NRAS” (CHUGAI SEIYAKU KABUSHIKI KAISHA, priority 2021, published 2024).

Columns and labels:
[1] = target: GDP-bound KRAS wild-type protein (Homo sapiens, UniProt P01116); assay: Binding to KRAS by surface plasmon resonance (SPR), Single Cycle Kinetics; settings: SPR, Single Cycle Kinetics, GDP-bound KRAS wild-type protein; read-out: KRAS KD
[2] = target: GDP-bound NRAS wild-type protein (Homo sapiens, UniProt P01111); assay: Binding to NRAS by surface plasmon resonance (SPR), Single Cycle Kinetics; settings: SPR, GDP-bound NRAS wild-type protein vs GDP-bound KRAS wild-type protein
[3] = target: GDP-bound HRAS wild-type protein (Homo sapiens, UniProt P01112); assay: Binding to HRAS by surface plasmon resonance (SPR), Single Cycle Kinetics; settings: SPR, GDP-bound HRAS wild-type protein vs GDP-bound KRAS wild-type protein
GDP-bound HRAS wild-type protein, sequence (P01112 whole entry): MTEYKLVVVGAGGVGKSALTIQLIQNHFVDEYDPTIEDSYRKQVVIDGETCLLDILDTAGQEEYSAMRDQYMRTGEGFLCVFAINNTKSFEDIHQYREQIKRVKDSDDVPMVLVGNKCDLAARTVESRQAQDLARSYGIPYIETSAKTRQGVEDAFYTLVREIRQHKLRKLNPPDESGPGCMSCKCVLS

GDP-bound KRAS wild-type protein, sequence (P01116 whole entry): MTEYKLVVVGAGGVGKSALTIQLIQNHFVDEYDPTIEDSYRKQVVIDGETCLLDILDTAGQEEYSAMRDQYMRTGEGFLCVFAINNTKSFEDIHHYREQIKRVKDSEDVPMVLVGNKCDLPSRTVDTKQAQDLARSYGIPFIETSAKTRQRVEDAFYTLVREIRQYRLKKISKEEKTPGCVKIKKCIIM
GDP-bound NRAS wild-type protein, sequence (P01111 whole entry): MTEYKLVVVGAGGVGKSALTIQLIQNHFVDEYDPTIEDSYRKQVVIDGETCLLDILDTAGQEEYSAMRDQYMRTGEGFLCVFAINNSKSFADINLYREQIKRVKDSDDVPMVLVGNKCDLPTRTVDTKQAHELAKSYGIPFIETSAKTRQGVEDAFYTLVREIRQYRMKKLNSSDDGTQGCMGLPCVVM

Row | SMILES | Kd [1] [nM] | NRAS/KRAS (ratio of KD value for NRAS to KD value for KRAS) [2] | HRAS/KRAS (ratio of KD value for HRAS to KD value for KRAS) [3]
1 | CCO[C@@H]1C[C@H]2C(=O)NC3(CCC3)C(=O)N(C)[C@@H](CC(C)C)C(=O)N(C)[C@H](C(=O)N(C)C)CC(=O)N(C)[C@@H](CC)C(=O)N[C@@H]([C@@H](C)CC)C(=O)N(C)CC(=O)N(C)[C@H]3C/C=C\CCN(C3=O)[C@@H](Cc3ccc(C(F)(F)F)cc3)C(=O)N(C)CC(=O)N[C@@H](CCc3cc(F)c(C(F)(F)F)c(F)c3)C(=O)N2C1 [PP1089, (2S,8S,12R,14S,20S,23S,27S,30S,36S,38Z)-8-[2-[3,5-difluoro-4-(trifluoromethyl)phenyl]ethyl]-12-ethoxy-27-ethyl-20-isobutyl-N,N,4,19,22,26,32,35-octamethyl-30-[(1S)-1-methylpropyl]-3,6,9,15,18,21,25,28,31,34,42-undecaoxo-2-[[4-(trifluoromethyl)phenyl]methyl]spiro[1,4,7,10,16,19,22,26,29,32,35-undecazatricyclo[34.5.1.0^10,14]dotetracont-38-ene-17,1′-cyclobutane]-23-carboxamide] | 0.12 | AA (a compound having 20 or more is denoted as AA) | A (a compound having 10 or more and less than 20 is denoted as A)
2 | CCO[C@@H]1C[C@H]2C(=O)NC3(CCC3)C(=O)N(C)[C@@H](C3CCCC3)C(=O)N(C)[C@H](C(=O)N3CCCC3)CC(=O)N(C)[C@@H](CC)C(=O)N[C@@H]([C@@H](C)CC)C(=O)N(C)CC(=O)N(C)[C@H]3C/C=C\CCN(C3=O)[C@@H](Cc3ccc(C(F)(F)F)cc3)C(=O)N(C)CC(=O)N[C@@H](CCc3cc(F)c(C(F)(F)F)c(F)c3)C(=O)N2C1 [PP1090, (2S,8S,12R,14S,20S,23S,27S,30S,36S,38Z)-20-cyclopentyl-8-[2-[3,5-difluoro-4-(trifluoromethyl)phenyl]ethyl]-12-ethoxy-27-ethyl-4,19,22,26,32,35-hexamethyl-30-[(1S)-1-methylpropyl]-23-(pyrrolidine-1-carbonyl)-2-[[4-(trifluoromethyl)phenyl]methyl]spiro[1,4,7,10,16,19,22,26,29,32,35-undecazatricyclo[34.5.1.0^10,14]dotetracont-38-ene-17,1′-cyclobutane]-3,6,9,15,18,21,25,28,31,34,42-undecone] | 0.086 | AA (a compound having 20 or more is denoted as AA) | A (a compound having 10 or more and less than 20 is denoted as A)
3 | CCO[C@@H]1C[C@H]2C(=O)NC3(CCC3)C(=O)N(C)[C@@H](C3CCCC3)C(=O)N(C)[C@H](C(=O)N3CCC3)CC(=O)N(C)[C@@H](CC)C(=O)N[C@@H]([C@@H](C)CC)C(=O)N(C)CC(=O)N(C)[C@H]3C/C=C\CCN(C3=O)[C@@H](Cc3ccc(C(F)(F)F)cc3)C(=O)N(C)CC(=O)N[C@@H](CCc3cc(F)c(C(F)(F)F)c(F)c3)C(=O)N2C1 [PP1091, (2S,8S,12R,14S,20S,23S,27S,30S,36S,38Z)-23-(azetidine-1-carbonyl)-20-cyclopentyl-8-[2-[3,5-difluoro-4-(trifluoromethyl)phenyl]ethyl]-12-ethoxy-27-ethyl-4,19,22,26,32,35-hexamethyl-30-[(1S)-1-methylpropyl]-2-[[4-(trifluoromethyl)phenyl]methyl]spiro[1,4,7,10,16,19,22,26,29,32,35-undecazatricyclo[34.5.1.0^10,14]dotetracont-38-ene-17,1′-cyclobutane]-3,6,9,15,18,21,25,28,31,34,42-undecone] | 0.11 | A (a compound having 10 or more and less than 20 is denoted as A) | B (a compound having 3 or more and less than 10 is denoted as B)
4 | CCO[C@@H]1C[C@H]2C(=O)NC3(CCC3)C(=O)N(C)[C@@H](C3CCCC3)C(=O)N(C)[C@H](C(=O)N3CCOCC3)CC(=O)N(C)[C@@H](CC)C(=O)N[C@@H]([C@@H](C)CC)C(=O)N(C)CC(=O)N(C)[C@H]3C/C=C\CCN(C3=O)[C@@H](Cc3ccc(C(F)(F)F)cc3)C(=O)N(C)CC(=O)N[C@@H](CCc3cc(F)c(C(F)(F)F)c(F)c3)C(=O)N2C1 [PP1092] | 0.15 | A (a compound having 10 or more and less than 20 is denoted as A) | A (a compound having 10 or more and less than 20 is denoted as A)
5 | CCO[C@@H]1C[C@H]2C(=O)NC3(CCC3)C(=O)N(C)[C@@H](C3CCCC3)C(=O)N[C@H](C(=O)N(C)C)CC(=O)N(C)[C@@H](CC)C(=O)N[C@@H]([C@@H](C)CC)C(=O)N(C)CC(=O)N(C)[C@H]3C/C=C\CCN(C3=O)[C@@H](Cc3ccc(C(F)(F)F)cc3)C(=O)N(C)CC(=O)N[C@@H](CCc3cc(F)c(C(F)(F)F)c(F)c3)C(=O)N2C1 [PP1094] | 0.84 | A (a compound having 10 or more and less than 20 is denoted as A) | B (a compound having 3 or more and less than 10 is denoted as B)
6 | CCO[C@@H]1C[C@H]2C(=O)NC3(CCC3)C(=O)N(C)[C@@H](C3CCCC3)C(=O)N(C)[C@H](C)CC(=O)N(C)[C@@H](CC)C(=O)N[C@@H]([C@@H](C)CC)C(=O)N(C)CC(=O)N(C)[C@H]3C/C=C\CCN(C3=O)[C@@H](Cc3ccc(C(F)(F)F)cc3)C(=O)N(C)CC(=O)N[C@@H](CCc3cc(F)c(C(F)(F)F)c(F)c3)C(=O)N2C1 [PP1095] | 0.18 | B (a compound having 3 or more and less than 10 is denoted as B) | B (a compound having 3 or more and less than 10 is denoted as B)
7 | CCO[C@@H]1C[C@H]2C(=O)NC3(CCCC3)C(=O)N(C)[C@@H](C3CCCC3)C(=O)N(C)[C@H](C)CC(=O)N(C)[C@@H](CC(C)C)C(=O)N[C@@H]([C@@H](C)CC)C(=O)N(C)CC(=O)N(C)[C@H]3C/C=C\CCN(C3=O)[C@@H](Cc3ccc(C(F)(F)F)cc3)C(=O)N(C)CC(=O)N[C@@H](CCc3cc(F)c(C(F)(F)F)c(F)c3)C(=O)N2C1 [PP1096] | 0.24 | B (a compound having 3 or more and less than 10 is denoted as B) | B (a compound having 3 or more and less than 10 is denoted as B)
8 | CCO[C@@H]1C[C@H]2C(=O)NC3(CCC3)C(=O)N(C)[C@@H](C3CCCC3)C(=O)N3CCC[C@@H]3CC(=O)N(C)[C@@H](CC)C(=O)N[C@@H]([C@@H](C)CC)C(=O)N(C)CC(=O)N(C)[C@H]3C/C=C\CCN(C3=O)[C@@H](Cc3ccc(C(F)(F)F)cc3)C(=O)N(C)CC(=O)N[C@@H](CCc3cc(F)c(C(F)(F)F)c(F)c3)C(=O)N2C1 [PP1097, (2S,8S,12R,14S,20S,26R,30S,33S,39S,41Z)-20-cyclopentyl-8-[2-[3,5-difluoro-4-(trifluoromethyl)phenyl]ethyl]-12-ethoxy-30-ethyl-4,19,29,35,38-pentamethyl-33-[(1 S)-1-methylpropyl]-2-[[4-(trifluoromethyl)phenyl]methyl]spiro[1,4,7,10,16,19,22,29,32,35,38-undecazatetracyclo[37.5.1.0^10,14.022,26]pentatetracont-41-ene-17,1′-cyclobutane]-3,6,9,15,18,21,28,31,34,37,45-undecone] | 0.12 | B (a compound having 3 or more and less than 10 is denoted as B) | B (a compound having 3 or more and less than 10 is denoted as B)
9 | CCO[C@@H]1C[C@H]2C(=O)NC3(CCC3)C(=O)N(C)[C@@H](C3CCCC3)C(=O)N[C@H](C)CC(=O)N(C)[C@@H](CC)C(=O)N[C@@H]([C@@H](C)CC)C(=O)N(C)CC(=O)N(C)[C@H]3C/C=C\CCN(C3=O)[C@@H](Cc3ccc(C(F)(F)F)cc3)C(=O)N(C)CC(=O)N[C@@H](CCc3cc(F)c(C(F)(F)F)c(F)c3)C(=O)N2C1 [PP1098] | 0.68 | B (a compound having 3 or more and less than 10 is denoted as B) | B (a compound having 3 or more and less than 10 is denoted as B)
10 | CC[C@H](C)[C@@H]1NC(=O)[C@H](CC)N(C)C(=O)C[C@@H](C)N(C)C(=O)[C@H](C2CCCC2)N(C)C(=O)C2(CCCC2)NC(=O)[C@@H]2CCCN2C(=O)[C@H](CCc2cc(F)c(C(F)(F)F)c(F)c2)NC(=O)CN(C)C(=O)[C@H](Cc2ccc(C(F)(F)F)cc2)N2CC/C=C\C[C@@H](C2=O)N(C)C(=O)CN(C)C1=O [PP1101] | 0.46 | B (a compound having 3 or more and less than 10 is denoted as B) | B (a compound having 3 or more and less than 10 is denoted as B)
11 | CC[C@H](C)[C@@H]1NC(=O)[C@H](CC(C)C)N(C)C(=O)C[C@@H](C)N(C)C(=O)[C@H](C2CCCC2)N(C)C(=O)C2(CCCC2)NC(=O)[C@@H]2CCCN2C(=O)[C@H](CCc2cc(F)c(C(F)(F)F)c(F)c2)NC(=O)CN(C)C(=O)[C@H](Cc2ccc(C(F)(F)F)cc2)N2CC/C=C\C[C@@H](C2=O)N(C)C(=O)CN(C)C1=O [PP1102] | 0.95 | B (a compound having 3 or more and less than 10 is denoted as B) | A (a compound having 10 or more and less than 20 is denoted as A)
